Measurements reported in paper PMC6199744, “Development of Chemical Proteomics for the Folateome and Analysis of the Kinetoplastid Folateome” (ACS Infectious Diseases, 2018).
Where two headings read alike, the source gives them in different places.

Tests used:
Format in all cases: binding
[1] = biological target: T1, HeLa cell extract proteins (Homo sapiens, UniProt P18074)
T1 construct: endogenous in cells; host or cells: HeLa cell extract
T1 sequence (P18074 1-760): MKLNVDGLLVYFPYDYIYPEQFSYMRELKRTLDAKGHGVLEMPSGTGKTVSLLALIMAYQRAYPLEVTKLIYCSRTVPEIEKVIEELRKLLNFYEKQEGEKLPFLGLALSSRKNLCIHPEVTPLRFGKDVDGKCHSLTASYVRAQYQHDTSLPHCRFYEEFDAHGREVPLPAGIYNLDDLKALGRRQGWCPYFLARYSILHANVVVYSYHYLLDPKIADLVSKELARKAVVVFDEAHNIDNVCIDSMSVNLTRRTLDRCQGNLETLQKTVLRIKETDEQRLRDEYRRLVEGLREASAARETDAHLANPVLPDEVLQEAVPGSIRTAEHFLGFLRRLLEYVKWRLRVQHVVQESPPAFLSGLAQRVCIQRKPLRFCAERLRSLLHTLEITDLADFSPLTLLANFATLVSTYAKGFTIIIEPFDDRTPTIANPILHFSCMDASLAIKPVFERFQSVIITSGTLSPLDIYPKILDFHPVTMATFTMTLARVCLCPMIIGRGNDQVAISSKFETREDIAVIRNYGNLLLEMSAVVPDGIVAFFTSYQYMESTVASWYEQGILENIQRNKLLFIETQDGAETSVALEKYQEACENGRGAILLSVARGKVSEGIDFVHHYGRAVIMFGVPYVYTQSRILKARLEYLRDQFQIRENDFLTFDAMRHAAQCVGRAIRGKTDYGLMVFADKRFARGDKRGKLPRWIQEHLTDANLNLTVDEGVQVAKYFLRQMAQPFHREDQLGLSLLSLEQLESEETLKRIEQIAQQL

[2] = biological target: T2, HeLa cell extract proteins (Homo sapiens, UniProt Q16543)
T2 construct: endogenous in cells; host or cells: HeLa cell extract
T2 sequence (Q16543 1-378): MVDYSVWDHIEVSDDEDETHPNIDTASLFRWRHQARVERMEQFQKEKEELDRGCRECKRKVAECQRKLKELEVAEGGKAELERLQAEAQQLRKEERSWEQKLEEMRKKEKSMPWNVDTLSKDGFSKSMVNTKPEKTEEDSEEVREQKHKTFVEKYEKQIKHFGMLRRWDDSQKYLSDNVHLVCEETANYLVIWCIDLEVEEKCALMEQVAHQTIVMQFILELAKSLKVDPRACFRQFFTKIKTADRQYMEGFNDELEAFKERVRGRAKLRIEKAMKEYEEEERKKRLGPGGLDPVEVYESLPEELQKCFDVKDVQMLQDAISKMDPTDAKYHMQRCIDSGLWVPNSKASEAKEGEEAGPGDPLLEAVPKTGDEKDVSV

[3] = biological target: T3, HeLa cell extract proteins (Homo sapiens, UniProt Q9BWD1)
T3 construct: endogenous in cells; host or cells: HeLa cell extract
T3 sequence (Q9BWD1 whole entry): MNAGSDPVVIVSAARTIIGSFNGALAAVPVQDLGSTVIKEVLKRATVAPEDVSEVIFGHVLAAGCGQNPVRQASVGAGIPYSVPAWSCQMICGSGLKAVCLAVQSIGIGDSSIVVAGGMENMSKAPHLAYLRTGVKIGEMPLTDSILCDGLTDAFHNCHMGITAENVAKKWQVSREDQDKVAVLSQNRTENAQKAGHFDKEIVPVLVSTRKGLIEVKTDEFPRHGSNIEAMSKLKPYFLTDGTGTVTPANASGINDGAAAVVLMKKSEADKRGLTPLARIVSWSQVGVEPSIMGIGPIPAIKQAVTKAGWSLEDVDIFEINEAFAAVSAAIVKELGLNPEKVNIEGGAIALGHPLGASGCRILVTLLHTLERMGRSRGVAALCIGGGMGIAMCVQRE

[4] = biological target: T4, HeLa cell extract proteins (Homo sapiens, UniProt A0FGR8); details: HeLa; protein FAM62B
T4 construct: endogenous in cells; host or cells: HeLa cell extract
T4 sequence (A0FGR8 1-921): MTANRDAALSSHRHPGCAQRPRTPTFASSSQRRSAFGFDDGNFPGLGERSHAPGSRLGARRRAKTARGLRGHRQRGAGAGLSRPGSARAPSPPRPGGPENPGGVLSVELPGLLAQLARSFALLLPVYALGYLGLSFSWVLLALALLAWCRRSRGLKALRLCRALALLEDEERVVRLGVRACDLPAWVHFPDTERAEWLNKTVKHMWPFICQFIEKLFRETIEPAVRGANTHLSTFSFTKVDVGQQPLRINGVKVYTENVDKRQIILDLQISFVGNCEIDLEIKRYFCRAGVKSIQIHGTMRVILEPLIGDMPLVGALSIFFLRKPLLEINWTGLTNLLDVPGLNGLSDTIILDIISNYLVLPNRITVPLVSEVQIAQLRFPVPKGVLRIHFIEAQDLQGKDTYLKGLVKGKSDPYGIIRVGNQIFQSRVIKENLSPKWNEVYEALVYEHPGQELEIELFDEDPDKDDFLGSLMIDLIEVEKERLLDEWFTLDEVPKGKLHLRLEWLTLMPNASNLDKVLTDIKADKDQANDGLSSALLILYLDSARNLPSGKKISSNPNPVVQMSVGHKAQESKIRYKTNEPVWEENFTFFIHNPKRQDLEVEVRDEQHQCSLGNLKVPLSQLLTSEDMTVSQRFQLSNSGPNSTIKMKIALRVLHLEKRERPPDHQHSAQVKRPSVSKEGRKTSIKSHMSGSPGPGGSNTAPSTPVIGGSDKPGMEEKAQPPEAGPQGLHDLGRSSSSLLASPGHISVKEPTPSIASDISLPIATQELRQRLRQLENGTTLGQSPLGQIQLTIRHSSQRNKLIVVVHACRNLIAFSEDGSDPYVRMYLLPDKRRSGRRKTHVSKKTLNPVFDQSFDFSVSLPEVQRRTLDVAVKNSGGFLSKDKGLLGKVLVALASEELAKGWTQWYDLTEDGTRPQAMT

[5] = biological target: T5, HeLa cell extract proteins (Homo sapiens, UniProt Q8TDH9); details: protein MUTED; HeLa
T5 construct: endogenous in cells; host or cells: HeLa cell extract
T5 sequence (Q8TDH9 1-187): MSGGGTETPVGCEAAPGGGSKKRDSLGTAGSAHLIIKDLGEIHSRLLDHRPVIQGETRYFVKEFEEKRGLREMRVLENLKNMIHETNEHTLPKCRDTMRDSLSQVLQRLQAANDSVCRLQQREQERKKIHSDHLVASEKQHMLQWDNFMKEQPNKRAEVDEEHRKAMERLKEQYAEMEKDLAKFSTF

[6] = biological target: T6, HeLa cell extract proteins (Homo sapiens, UniProt Q92688); details: HeLa; protein ANP32B (ISOFORM 1 OF ACIDIC LEUCINE-RICH NUCLEAR PHOSPHOPROTEIN 32 FAMILY MEMBER B.)
T6 construct: endogenous in cells; host or cells: HeLa cell extract
T6 sequence (Q92688 whole entry, canonical isoform): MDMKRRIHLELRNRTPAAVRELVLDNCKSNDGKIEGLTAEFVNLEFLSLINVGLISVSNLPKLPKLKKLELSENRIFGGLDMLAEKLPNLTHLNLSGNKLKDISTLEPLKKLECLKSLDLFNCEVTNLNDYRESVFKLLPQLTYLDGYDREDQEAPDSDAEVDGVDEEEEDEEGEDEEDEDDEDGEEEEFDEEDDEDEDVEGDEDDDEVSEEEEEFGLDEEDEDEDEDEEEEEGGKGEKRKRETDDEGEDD

[7] = biological target: T7, HeLa cell extract proteins (Homo sapiens, UniProt Q9Y316); details: HeLa; protein MEMO1
T7 construct: endogenous in cells; host or cells: HeLa cell extract
T7 sequence (Q9Y316 1-297): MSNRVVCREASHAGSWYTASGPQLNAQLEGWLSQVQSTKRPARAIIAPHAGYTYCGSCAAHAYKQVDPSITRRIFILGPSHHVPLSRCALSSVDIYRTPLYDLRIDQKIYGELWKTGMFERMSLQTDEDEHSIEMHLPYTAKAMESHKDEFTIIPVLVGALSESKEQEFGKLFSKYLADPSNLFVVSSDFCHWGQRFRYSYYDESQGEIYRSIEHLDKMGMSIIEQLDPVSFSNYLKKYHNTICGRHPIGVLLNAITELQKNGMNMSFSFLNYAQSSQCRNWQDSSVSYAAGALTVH

| SMILES | fold changes relative to vehicle control ([1]; HeLa, captured protein ERCC2) | fold changes relative to vehicle control ([2]; protein CDC37, HeLa) | fold changes relative to vehicle control ([3]; HeLa, protein ACAT2) | fold changes relative to vehicle control [4] | fold changes relative to vehicle control [5] | fold changes relative to vehicle control [6] [fold] | fold changes relative to vehicle control [7] | other results |
| --- | --- | --- | --- | --- | --- | --- | --- | --- |
| Nc1nc2c(c(=O)[nH]1)N(C=O)C(CNc1ccc(C(=O)N[C@@H](CCC(=O)O)C(=O)O)cc1)CN2 (stereo partly drawn) [LEU, leucovorin] | 1.14 | 1.13 | 1.06 | – | – | – | – | – |
| Nc1nc2[nH]cc(CCc3ccc(C(=O)N[C@@H](CCC(=O)O)C(=O)O)cc3)c2c(=O)[nH]1 [PTX, pemetrexed] | – | – | – | – | – | – | – | fold changes relative to vehicle control [1]: 0.98; fold changes relative to vehicle control [2]: 1.1; fold changes relative to vehicle control [3]: 0.82 |
| CCCCCCOc1ccc(Cc2cnc(N)nc2N)cc1 [compound 1] | – | – | – | 0.82 | 1.09 | 1.88 | 0.97 | – |
| CCCCCCOc1cccc(Cc2cnc(N)nc2N)c1 [compound 2] | – | – | – | 1.29 | 1.65 | 3.3 | 0.87 | – |
| Nc1nc2cccc(-c3ccccc3)c2n1Cc1ccc(Cl)c(Cl)c1 [compound 3] | – | – | – | 0.96 | 0.99 | 4.13 | 1 | – |
| NCCOCCOCC(=O)Nc1nc2ncc(CNc3ccc(C(=O)NC(CCC(=O)O)C(=O)O)cc3)nc2c(=O)[nH]1 (stereo not drawn) [compound 6] | 0.98 | 1.21 | 1.17 | – | – | – | – | – |
| NCCCNc1ccc(C(=O)NC(CCC(=O)O)C(=O)O)cc1 (stereo not drawn) [compound 7] | 1 | 1.14 | 1.12 | – | – | – | – | – |
